# Biological target: MYC:TRRAP interaction (Homo sapiens, UniProt P01106+Q9Y4A5)
# Experiment: MYC:TRRAP in-cell luminescence complementation assay (NanoBiT; SmB-MYC 1-190 and TRRAP 2033-2283-LgB in HeLa cells)
# Type: cell-based
# Conditions: Table 1; 46 primary hits at 10 uM; HeLa cells; triplicate measurements
# Method: HeLa cells plated on Greiner 96-well TC-rated white plates with clear bottoms were used for the following measurements. Reverse transfections were carried out using LipoD293™ before cells were plated. A bluescript KS' plasmid (Addgene) was used as carrier DNA for transfections, and a pcDNA3.1 EGFP plasmid (ThermoFisher) was used as a fluorescence reporter. White light-reflecting film (USA Scientific) was used to cover the bottom of the plates for luminescence measurements. Black light-absorbing film was used to cover the top of the plates for fluorescence measurements. All measurements were taken on a SpectraMax i3 instrument (Molecular Devices).
# Transfections were carried out with increasing DNA amounts (1-100 ng per well) of a CMV-driven LgB plasmid and SmB in excess or vice-versa. Background luminesce for the usable range and the amount of DNA needed for vast excess of LgB or SmB were noted. Next, complementation with vast excess either LgB or SmB was used to determine the expression of each of the indicated MYC and TRRAP constructs for a range of DNA amounts per well: 10-100 ng. An optimal ratio of DNA to equalize the expression of each MYC and TRRAP pair was calculated. Then, signal-to-noise ratios were calculated for the indicated MYC and TRRAP pairs, and the pair with the highest ratio was chosen. Finally, the chosen pair was used to determine the optimal DNA transfection mixture. It was determined to be 6.7 ng of a plasmid with a MYC construct, 60 ng of a plasmid with a TRRAP construct and 33.3 ng of the pcDNA 3.1 EGFP plasmid, for each well in a 96-well plate. Unless otherwise indicated, these were the ratios of DNA transfected for this type of assay.
# HeLa cells were transfected as above using LipoD293™ with a mixture of SmB-MYC 1-190, TRRAP 2033-2283-LgB, and EGFP in CMV-driven plasmids at the same optimized ratio described above. Two days post-transfection, the media in each well was replaced with fresh media containing each compound from the NCI's sets at 25 μM. Cells were incubated for 2 h with each compound, and luminescence and fluorescence measurements were recorded for each well. Changes in luminescence were normalized to fluorescence. The following pre-plated compound sets were obtained from the NCI/DTP chemical repository and used for this screen:
# These chemical sets were used to discover novel small-molecule inhibitors of the MYC:TRRAP complex. SmB-MYC 1-190, TRRAP 2033-2283-LgB, and EGFP were transfected into HeLa cells. Two days post-transfection, compounds were added to the media at 25 μM and cells were incubated for 2h. Luminescence and fluorescence were recorded for each well containing one of the compounds. Changes in luminescence measurements were normalized to fluorescence measurements.
# Afterwards, only molecules that reduced luminescence levels to <50% RLU were considered. This set of 46 compounds were incubated at 10 μM with vector-expressing cells. Luminescence complementation was measured and repeated in triplicate measurements. In addition, HeLa cells expressing LgB and SmB alone were incubated with the same compounds to rule out potentially artificial results due to inhibition of luciferase or its complementation. Molecules that induces any significant reduction in luminescence (<0.6) during this control assay were not considered further. Of 2947 molecules, 17 were chosen for further testing and ordered from the NCI/DTP Open Chemical Repository. FIG. 16 describes these chosen compounds.
# Using the luminescence assay above as a readout for the MYC:TRRAP interaction, we used a robotic liquid handler to evaluate 2987 additional compounds (25 μM). All primary hits were counter-screened for any activity against the luciferase enzyme itself and for any effects on the expression of the fusion proteins. We set a threshold of 50% inhibition to consider compounds further. Only 17 out of 2987 passed all these criteria (0.6%). […]
# MYC:TRRAP interaction, sequence (P01106 16-205): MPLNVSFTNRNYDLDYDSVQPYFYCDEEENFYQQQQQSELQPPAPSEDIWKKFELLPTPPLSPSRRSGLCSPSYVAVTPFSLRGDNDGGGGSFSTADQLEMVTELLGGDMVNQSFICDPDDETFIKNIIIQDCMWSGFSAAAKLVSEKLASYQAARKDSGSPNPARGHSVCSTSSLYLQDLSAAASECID
# MYC:TRRAP interaction, sequence (Q9Y4A5 2051-2301): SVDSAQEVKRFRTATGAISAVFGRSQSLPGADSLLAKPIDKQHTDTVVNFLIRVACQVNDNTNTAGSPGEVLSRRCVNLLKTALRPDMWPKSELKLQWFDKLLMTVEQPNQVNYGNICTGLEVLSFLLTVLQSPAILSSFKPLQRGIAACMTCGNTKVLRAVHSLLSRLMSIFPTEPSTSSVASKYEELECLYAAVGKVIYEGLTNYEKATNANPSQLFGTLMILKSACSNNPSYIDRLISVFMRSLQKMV
row,Structure (SMILES),% Inhibition 10 uM
1,"CC(C)(C)c1cc(C=C(C#N)C#N)cc(C(C)(C)C)c1O [Compound 25, 2-[(3,5-ditert-butyl-4-hydroxyphenyl)methylidene] propanedinitrile]",42.52%
2,"Cc1ccc(NC(=S)C#N)c(C)c1 [Compound 26, 1-cyano-N-(2,4-dimethylphenyl) methanethioamide]",90.89%
3,"CC1=C(CCC(=O)O)c2cc3nc(cc4[nH]c(cc4C)cc4[nH]c(cc1n2)cc4C)C(C)=C3CCC(=O)O [Compound 27, 3-[18-(2-carboxyethyl)-3,8,13,17-tetramethyl-22,23-dihydroporphyrin-2-yl]propanoic acid]",75.42%
4,"O=C1c2ccccc2C(=O)c2sc(Nc3ccc(Cl)cc3)nc21 [Compound 28, 2-(4-chloroanilino)benzo [f][1,3] benzothiazole-4,9-dione]",66.32%
5,COc1c(OC)c2c3c(nccc3c1OC)-c1cc(=O)c(OC)ccc1-2 [Compound 30],68.68%
6,"Cc1cc2c(C(C)C)c(O)c(O)c(C=O)c2c(O)c1-c1c(C)cc2c(C(C)C)c(O)c(O)c(C=O)c2c1O [Compound 31, 7-(8-formyl-1,6,7-trihydroxy-3-methyl-5-propan-2-ylnaphthalen-2-yl)-2,3,8-trihydroxy-6-methyl-4-propan-2-ylnaphthalene-1-carbaldehyde]",68.27%
7,"FC(F)(F)c1cccc(-c2nc3nc(Cl)c(Cl)[nH]c-3n2)c1 [Compound 32, 5,6-dichloro-2-[3-(trifluoromethyl)phenyl]-1H-imidazo[4,5-b]pyrazine]",80.85%
8,"CC1=C(C)C(=O)O[C@H]([C@](C)(O)[C@]2(O)CC[C@@]3(O)[C@@H]4C[C@H]5O[C@]56CC=CC(=O)[C@]6(C)[C@H]4CC[C@]23C)C1 [Compound 33, (1S,2R,7S,9R,11R, 12R,15S,16S)-15-[(1S)-1-[(2S)-4,5-dimethyl-6-oxo-2,3-dihydropyran-2-yl]-1-hydroxyethyl]-12,15-dihydroxy-2,16-dimethyl-8-oxapentacyclo [9.7.0.02, 7.07,9.012,16] octadec-4-en-3-one]",29.74%
9,"COc1cccc2c1C(=O)c1c(O)c3c(c(O)c1C2=O)C[C@@](O)(C(C)=O)C[C@@H]3OC1CC(N(Cc2ccccc2)Cc2ccccc2)C(O)C(C)O1.Cl (stereo partly drawn) [Compound 34, (7S,9S)-9-acetyl-7-[4-(dibenzylamino)-5-hydroxy-6-methyloxan-2-yl]oxy-6,9,11-trihydroxy-4-methoxy-8,10-dihydro-7H-tetracene-5,12-dione; hydrochloride]",78.65%
10,"CN(C)c1ccc(/C=C/C(=O)c2cc(Cl)ccc2O)cc1 [Compound 35, (E)-1-(5-chloro-2-hydroxyphenyl)-3-[4-(dimethylamino)phenyl]prop-2-en-1-one]",50.79%
11,"N[C@@H](Cc1ccc2oc3cc(=O)c4ccccc4c-3nc2c1)C(=O)O.O=[N+]([O-])O [Compound 36, (2S)-2-amino-3-(5-oxobenzo[a]pheno-xazin-10-yl)propanoic acid; nitric acid]",73.39%
12,"Cc1ccc2c(c1)C=C/C(=C\C=C1/C=CC(=O)c3ncccc31)N2C [Compound 37, 5-[2-(1,6-dimethylquinolin-1-ium-2-yl)ethenyl]quinolin-8-ol]",84.83%
13,CC1Oc2cc3c(-c4c(O)cc(O)c5c(O)c6c(cc45)OC(C)C(C)C6=O)c(O)cc(O)c3c(O)c2C(=O)C1C (centres unmarked) [Compound 38],76.03%
14,COc1cc2c3c(cc4ccccc4c3c1O)N(C)CC2 [Compound 39],73.42%
15,"CC1(C)CCC2=C(O1)c1ccccc1C(=O)C2=O [Compound 40, 2,2-dimethyl-3,4-dihydrobenzo[h] chromene-5,6-dione]",76.06%
16,"COc1cc(/N=N/c2cccc(S(N)(=O)=O)c2)c2ccccc2c1N [Compound 41, 3-[(4-amino-3-methoxy-naphthalen-1-yl)diazenyl] benzene-sulfonamide]",78.97%
17,"COC(=O)[C@H]1[C@H]2C[C@@H]3c4[nH]c5ccccc5c4CCN3C[C@H]2C[C@@H](OC(=O)c2cc(OC)c(OC)c(OC)c2)[C@@H]1OC [Compound 42, methyl (1R,15S,17R,18R, 19S,20S)-18-methoxy-17-(3,4,5-trimethoxybenzoyl) oxy-1,3,11,12,14,15,16, 17,18,19,20,21-dodecahydro-yohimban-19-carboxylate]",102.5%
18,"CN(C)c1ccc2c(c1)Sc1cc(N(C)C)ccc1N2C(=O)c1ccccc1 [Compound 44, [3,7-bis(dimethylamino)phenothiazin-10-yl]-phenylmethanone]",93.68%
19,"COc1c2c(cc3c1C1Oc4c(ccc(O)c4CC=C(C)C)C1CO3)OC(C)(C)C=C2 (centres unmarked) [Compound 45, 21-methoxy-17,17-dimethyl-5-(3-methylbut-2-enyl)-3,12,16-trioxapentacyclo [11.8.0.02,10.04, 9.015,20] henicosa-1(13),4(9),5,7, 14,18, 20-heptaen-6-ol]",85.82%

# Same assay, conditions: Table 2; compounds with >80% similarity to compound 10 (NSC657456); 10 uM
row,Structure (SMILES),% Inhibition 10 uM
1,"N=C(S)/N=N/c1c(O)[nH]c2ccccc12 [Compound 101, (2-hydroxy-1H-indol-3-yl)iminothiourea]",104.5%
2,"N=C(/N=N/c1c(O)[nH]c2ccccc12)N[N+](=O)[O-] [Compound 102, 1-[(2-hydroxy-1H-indol-3-yl)imino]-3-nitroguanidine]",100.4%
3,"N=C(/N=N/c1c(O)[nH]c2ccccc12)C(=N)/N=N/c1c(O)[nH]c2ccccc12 [Compound 103, 1-N,2-N-bis[(2-hydroxy-1H-indol-3-yl)imino]ethane-diimidamide]",88.83%
4,"N=C(N)/N=N/c1c(O)[nH]c2ccccc12 [Compound 104, 1-[(2-hydroxy-1H-indol-3-yl)imino] guanidine]",123.9%
5,"Oc1[nH]c2ccccc2c1/N=N/C(S)=N/c1ccccc1 [Compound 105, 1-[(2-hydroxy-1H-indol-3-yl)imino]-3-phenylthiourea]",65.25%
6,"NC(=O)/N=N/c1c(O)n(O)c2ccccc12 [Compound 106, (1,2-dihydroxyindol-3-yl)iminourea]",127.3%
7,"NC(=O)/N=N/c1c(O)[nH]c2ccccc12 [Compound 107, (2-hydroxy-1H-indol-3-yl)iminourea]",112.6%
8,CN(C)C(=S)/N=N/c1c(O)[nH]c2ccccc12 [Compound 108],86.25%
9,"O=[N+]([O-])c1ccc(/N=N/c2c(O)[nH]c3ccccc23)cc1 [Compound 109, 3-[(4-nitrophenyl)diazenyl]-1H-indol-2-ol]",54.48%
10,"Cc1ccccc1/N=N/c1c(O)[nH]c2ccccc12 [Compound 1010, 3-[(2-methylphenyl)diazenyl]-1H-indol-2-ol]",94.76%
11,"Oc1[nH]c2ccccc2c1/N=N/c1ccccc1Cl [Compound 1011, 3-[(2-chlorophenyl)diazenyl]-1H-indol-2-ol]",64.75%
12,"Oc1[nH]c2ccccc2c1/N=N/c1ccccc1 [Compound 1012, 3-phenyldiazenyl-1H-indol-2-ol]",66.53%
13,"O=C(/N=N/c1c(O)[nH]c2ccccc12)Nc1ccccc1 [Compound 1013, 1-[(2-hydroxy-1H-indol-3-yl)imino]-3-phenylurea]",83.25%

# — patent US20260216144A1, “TARGETING MB2 OF THE MYC ONCOGENE AND ITS INTERACTION WITH TRRAP IN CANCER” (priority 2019, published 2026)
